In US8278090B1, “Heterotrophic cultivation of hydrocarbon-producing microalgae” (Solazyme, Inc., priority 2008, dated 2012):
Where “and” joins values, the source holds several entries; their conditions need not be identical. Equal values may be shown once.

Columns and labels:
Type in all cases: cell-based
[1] = test system: Botryococcus braunii N-836; experiment: Different fixed carbon sources on heterotrophic growth, visual score; parameters: key to heterotrophic growth score, 0.1% / heterotrophic growth score, 0.5% / heterotrophic growth score, 1%: Growth was scored with +'s by visual examination of the cultures; ++: Growth was scored with +'s by visual examination of the cultures; +++: Growth was scored with +'s by visual examination of the cultures; ++++: Growth was scored with +'s by visual examination of the cultures; +++++: Growth was scored with +'s by visual examination of the cultures; details: for heterotrophic growth score, 0.1%: N-836, 0.1% carbon source in 1 ml BG11, dark; for heterotrophic growth score, 0.1% / heterotrophic growth score, 0.5% / heterotrophic growth score, 1%: 4 weeks; for heterotrophic growth score, 0.5%: N-836, 0.5% carbon source in 1 ml BG11, dark; for heterotrophic growth score, 1%: N-836, 1% carbon source in 1 ml BG11, dark; for heterotrophic growth on carbon source, in words: N-836, dark
Protocol: (§1) All carbon sources were tested at three different concentrations; 0.1%, 0.5% and 1%. Cultures were grown in 24 well plates for 4 weeks in the dark in 1 ml BG11 plus fixed carbon. Control cultures were grown in BG-11 media under phototrophic conditions without a fixed carbon source. Growth was scored with +'s by visual examination of the cultures (see Table 7). UTEX 572 grew best in glucose, however there was also growth on mannose, galactose and fructose. UTEX 2441 preferred mannose in the dark but there was some growth in galactose, fructose and glycerol.

[2] = test system: Botryococcus braunii UTEX 2441; experiment: as above; parameters: key to heterotrophic growth score, 0.1% / heterotrophic growth score, 0.5% / heterotrophic growth score, 1%: Growth was scored with +'s by visual examination of the cultures; ++: Growth was scored with +'s by visual examination of the cultures; +++: Growth was scored with +'s by visual examination of the cultures; ++++: Growth was scored with +'s by visual examination of the cultures; +++++: Growth was scored with +'s by visual examination of the cultures; details: for heterotrophic growth score, 0.1%: UTEX 2441, 0.1% carbon source in 1 ml BG11, dark; for heterotrophic growth score, 0.1% / heterotrophic growth score, 0.5% / heterotrophic growth score, 1%: 4 weeks; for heterotrophic growth score, 0.5%: UTEX 2441, 0.5% carbon source in 1 ml BG11, dark; for heterotrophic growth score, 1%: UTEX 2441, 1% carbon source in 1 ml BG11, dark; for heterotrophic growth on carbon source, in words: UTEX 2441, dark
Protocol: as §1

[3] = test system: Botryococcus braunii UTEX 572; experiment: as above; parameters: key to heterotrophic growth score, 0.1% / heterotrophic growth score, 0.5% / heterotrophic growth score, 1%: Growth was scored with +'s by visual examination of the cultures; ++: Growth was scored with +'s by visual examination of the cultures; +++: Growth was scored with +'s by visual examination of the cultures; ++++: Growth was scored with +'s by visual examination of the cultures; +++++: Growth was scored with +'s by visual examination of the cultures; details: for heterotrophic growth score, 0.1%: UTEX 572, 0.1% carbon source in 1 ml BG11, dark; for heterotrophic growth score, 0.1% / heterotrophic growth score, 0.5% / heterotrophic growth score, 1%: 4 weeks; for heterotrophic growth score, 0.5%: UTEX 572, 0.5% carbon source in 1 ml BG11, dark; for heterotrophic growth score, 1%: UTEX 572, 1% carbon source in 1 ml BG11, dark; for heterotrophic growth on carbon source, in words: UTEX 572, dark
Protocol: as §1

[4] = test system: Botryococcus braunii UTEX 2441; experiment: Mixotrophic growth with fixed carbon source in BG11 media in light; details: for DCW / DCW mg/15 ml.: three weeks
Protocol: (§2) Modified BG-11 (17.65 mM NaNO3, 0.23 mM K2PO4, 0.3 mM MgSO4.7H2O, 0.25 mM CaCl2.2H2O, 0.189 mM Na2CO3, 0.03 mM citric acid monohydrate, 0.023 mM ferric ammonium citrate, 0.046 mM H3BO3, 9.15 μM MnCl2.4H2O, 0.77 μM ZnSO4.7H2O, 0.32 μM CuSO4.5H2O, 0.21 μM CoCl2.6H2O, 1.62 μM NaMoO4.2H2O, 2.69 μM Na2EDTA, 9 mg/l Tricine, 1.99 μM Thiamine-HCl, 0.006 μM Cyanocobalamine, 0.044 μM Calcium Pantothenate, 0.29 μM p-aminobenzoic acid, soil water). […] Dry cell weight (DCW) were measured after three weeks for the glycerol samples.

[5] = test system: Botryococcus braunii UTEX 572; experiment: as above; details: for DCW / DCW mg/15 ml.: three weeks
Protocol: as §2

[6] = test system: Botryococcus braunii UTEX 2441; experiment: Complex nitrogen sources on heterotrophic growth with glucose; details: UTEX 2441, 1% glucose + 10 mM Urea, dark, 4 weeks
Protocol: (§3) The following experiment was done with UTEX 572, UTEX 2441, and N-836 in 20 ml of BG11 plus:
(§4) 1% glucose+2 g/L hydrolyzed casein

[7] = test system: Botryococcus braunii UTEX 572; experiment: as above; details: dark, 4 weeks
Protocol: as §3, §4

[8] = UTEX 2441, 0.75% glycerol in BG11, light
[9] = UTEX 2441, 1% glycerol in BG11, light
[10] = UTEX 2441, 1.5% glycerol in BG11, light
[11] = UTEX 572, 0.75% glycerol in BG11, light
[12] = UTEX 572, 1% glycerol in BG11, light
[13] = UTEX 572, 1.5% glycerol in BG11, light
[14] = UTEX 572, 1% glucose + 10 mM Urea

O=C[C@H](O)[C@@H](O)[C@@H](O)[C@H](O)CO [galactose]
heterotrophic growth score, 0.1% [1]: ++
heterotrophic growth score, 0.5% [1]: ++
heterotrophic growth score, 1% [1]: ++
heterotrophic growth on carbon source, in words [1]: heterotrophic growth
heterotrophic growth score, 0.1% [2]: ++
heterotrophic growth score, 0.5% [2]: +++
heterotrophic growth score, 1% [2]: ++
heterotrophic growth on carbon source, in words [2]: some growth
heterotrophic growth score, 0.1% [3]: ++
heterotrophic growth score, 0.5% [3]: +++
heterotrophic growth score, 1% [3]: +++
heterotrophic growth on carbon source, in words [3]: growth

OCC(O)CO [glycerol]
DCW [4, 8]: 0.273 g/L and 0.286 g/L
DCW mg/15 ml. [4, 8]: 4.1 mg/15 ml and 4.3 mg/15 ml
DCW [4, 9]: 0.22 g/L and 0.32 g/L
DCW mg/15 ml. [4, 9]: 3.3 mg/15 ml and 4.8 mg/15 ml
DCW [4, 10]: 0.24 g/L and 0.286 g/L
DCW mg/15 ml. [4, 10]: 4.3 mg/15 ml and 4.7 mg/15 ml
increased growth with glycerol ([4]; UTEX 2441, light, mixotrophic): 66%
DCW [5, 11]: 0.273 g/L and 0.206 g/L
DCW mg/15 ml. [5, 11]: 4.1 mg/15 ml and 3.1 mg/15 ml
DCW [5, 12]: 0.267 g/L and 0.20 g/L
DCW mg/15 ml. [5, 12]: 4.0 mg/15 ml and 3.0 mg/15 ml
DCW [5, 13]: 0.24 g/L and 0.293 g/L
DCW mg/15 ml. [5, 13]: 3.6 mg/15 ml and 4.4 mg/15 ml
difference in growth with or without glycerol ([5]; UTEX 572, light, mixotrophic): marginal difference
heterotrophic growth score, 0.1% [1]: +
heterotrophic growth score, 0.5% [1]: +
heterotrophic growth score, 1% [1]: +
heterotrophic growth score, 0.1% [2]: ++
heterotrophic growth score, 0.5% [2]: +++
heterotrophic growth score, 1% [2]: +++
heterotrophic growth on carbon source, in words [2]: some growth
heterotrophic growth score, 0.1% [3]: +
heterotrophic growth score, 0.5% [3]: +
heterotrophic growth score, 1% [3]: +

O=C(CO)[C@@H](O)[C@H](O)[C@H](O)CO [fructose]
heterotrophic growth score, 0.1% [1]: +
heterotrophic growth score, 0.5% [1]: +
heterotrophic growth score, 1% [1]: ++
heterotrophic growth on carbon source, in words [1]: heterotrophic growth
heterotrophic growth score, 0.1% [2]: ++
heterotrophic growth score, 0.5% [2]: +++
heterotrophic growth score, 1% [2]: +++
heterotrophic growth on carbon source, in words [2]: some growth
heterotrophic growth score, 0.1% [3]: ++
heterotrophic growth score, 0.5% [3]: ++
heterotrophic growth score, 1% [3]: ++
heterotrophic growth on carbon source, in words [3]: growth

CC(=O)[O-].[Na+] [acetate, sodium acetate]
heterotrophic growth score, 0.1% [1]: +
heterotrophic growth score, 0.5% [1]: +
heterotrophic growth score, 1% [1]: +
heterotrophic growth score, 0.1% [2]: ++
heterotrophic growth score, 0.5% [2]: ++
heterotrophic growth score, 1% [2]: ++
heterotrophic growth score, 0.1% [3]: +
heterotrophic growth score, 0.5% [3]: +
heterotrophic growth score, 1% [3]: +

O=C[C@@H](O)[C@H](O)[C@H](O)CO [arabinose]
heterotrophic growth score, 0.1% [1]: +
heterotrophic growth score, 0.5% [1]: +
heterotrophic growth score, 1% [1]: +
heterotrophic growth score, 0.1% [2]: ++
heterotrophic growth score, 0.5% [2]: ++
heterotrophic growth score, 1% [2]: ++
heterotrophic growth score, 0.1% [3]: +
heterotrophic growth score, 0.5% [3]: +
heterotrophic growth score, 1% [3]: +

NC(N)=O [Urea, urea]
DCW [6]: 0.10 g/L and 0.067 g/L
DCW mg/3 m1. [6]: 0.3 mg/3 m1 and 0.2 mg/3 m1
increased growth over glucose only culture ([7]; UTEX 572, 10 mM urea + 1% glucose): 76%
DCW [7, 14]: 0.467 g/L
DCW mg/3 m1. [7, 14]: 1.4 mg/3 m1
